Test results as given in US20080004302A1, “Novel Compounds” (ASTRAZENECA AB, priority 2006, published 2008).
Counter-ions that a name gives are not always drawn.

Legend:
FGFR1 IIIc [1] = target: T1, FGFR1 IIIc (Homo sapiens, UniProt P11362); assay: Cell based inhibition of transiently expressed FGFR1 IIIc phosphorylation (Cos-1 cells); conditions: Cos-1 cells, phospho-FGFR1; upper bound of bin; read-out: IC50
T1 construct: host or cells: Cos-1
Protocol: This assay is designed to detect inhibitors of transiently expressed FGFR1 phosphorylation by antibody staining of fixed cells detected using ArrayScan technology.
To undertake the assay, Cos-1 cells were harvested at 90-95% confluence for cell transfection. For each 96-well plate, 24 ul Lipofectamine 2000 was added to 809 ul OptiMEM and incubated at room temperature for 5 minutes. […] Equal volumes of DNA and Lipofectamine 2000 were combined (DNA: Lipid=1:1.2 ratio) and incubated at room temperature for 20 minutes.
The harvested Cos-1 cells are counted using a coulter counter and diluted further with 1% FCS/DMEM to 2.5×10^5 cells/ml. For each 96-well, 8.33 ml cells were required. […] Media was removed from the wells using vacuum aspiration; cells were fixed by adding 50μl of 100% methanol to each well and incubated at room temperature for 20 minutes.
The plates were read on an Arrayscan (Cellomics).

FGFR1 IIIc [2] = target: T1, FGFR1 IIIc; assay: Cell based inhibition of transiently expressed FGFR1 IIIc phosphorylation via use of ECHO technology (Cos-1 cells); conditions: Cos-1 cells, phospho-FGFR1, ECHO dosing; upper bound of bin; read-out: IC50
FGFR1 kinase = FGFR1 kinase (Homo sapiens, UniProt P11362); assay: Kinase assay (using Caliper technology); assay type: biochemical; conditions: FGFR1 kinase, Caliper; upper bound of bin; read-out: IC50
Outline: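 Human FGFR1 kinase activity measured with a 13-mer fluorescently tagged FGFR1-specific peptide substrate; compounds serially diluted in 5% (v/v) DMSO. Reactions ran 1.5 h at room temperature, stopped with EDTA-containing HEPES pH 7.5 buffer. Phosphorylated and unphosphorylated peptide separated by microfluidic mobility shift.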

Erk phosphorylation = assay: Growth factor (bFGF) stimulated Erk phosphorylation in NIH 3T3 cells; conditions: Mus musculus
human IGF1R = target: T2, human IGF1R (Homo sapiens, UniProt P08069); assay: Inhibition of insulin-like growth factor-1 receptor phosphorylation in R+ cells; assay type: cell-based; conditions: 30 nM IGF1, read-out: IGF cell class
T2 construct: expressed in transfected cells; host or cells: R+ cells (R- mouse fibroblasts transfected with human IGF1R)

[3] = NIH3T3, NIH 3T3 cells, 3 ng/ml bFGF, upper bound of bin

T2 sequence (P08069 31-1367): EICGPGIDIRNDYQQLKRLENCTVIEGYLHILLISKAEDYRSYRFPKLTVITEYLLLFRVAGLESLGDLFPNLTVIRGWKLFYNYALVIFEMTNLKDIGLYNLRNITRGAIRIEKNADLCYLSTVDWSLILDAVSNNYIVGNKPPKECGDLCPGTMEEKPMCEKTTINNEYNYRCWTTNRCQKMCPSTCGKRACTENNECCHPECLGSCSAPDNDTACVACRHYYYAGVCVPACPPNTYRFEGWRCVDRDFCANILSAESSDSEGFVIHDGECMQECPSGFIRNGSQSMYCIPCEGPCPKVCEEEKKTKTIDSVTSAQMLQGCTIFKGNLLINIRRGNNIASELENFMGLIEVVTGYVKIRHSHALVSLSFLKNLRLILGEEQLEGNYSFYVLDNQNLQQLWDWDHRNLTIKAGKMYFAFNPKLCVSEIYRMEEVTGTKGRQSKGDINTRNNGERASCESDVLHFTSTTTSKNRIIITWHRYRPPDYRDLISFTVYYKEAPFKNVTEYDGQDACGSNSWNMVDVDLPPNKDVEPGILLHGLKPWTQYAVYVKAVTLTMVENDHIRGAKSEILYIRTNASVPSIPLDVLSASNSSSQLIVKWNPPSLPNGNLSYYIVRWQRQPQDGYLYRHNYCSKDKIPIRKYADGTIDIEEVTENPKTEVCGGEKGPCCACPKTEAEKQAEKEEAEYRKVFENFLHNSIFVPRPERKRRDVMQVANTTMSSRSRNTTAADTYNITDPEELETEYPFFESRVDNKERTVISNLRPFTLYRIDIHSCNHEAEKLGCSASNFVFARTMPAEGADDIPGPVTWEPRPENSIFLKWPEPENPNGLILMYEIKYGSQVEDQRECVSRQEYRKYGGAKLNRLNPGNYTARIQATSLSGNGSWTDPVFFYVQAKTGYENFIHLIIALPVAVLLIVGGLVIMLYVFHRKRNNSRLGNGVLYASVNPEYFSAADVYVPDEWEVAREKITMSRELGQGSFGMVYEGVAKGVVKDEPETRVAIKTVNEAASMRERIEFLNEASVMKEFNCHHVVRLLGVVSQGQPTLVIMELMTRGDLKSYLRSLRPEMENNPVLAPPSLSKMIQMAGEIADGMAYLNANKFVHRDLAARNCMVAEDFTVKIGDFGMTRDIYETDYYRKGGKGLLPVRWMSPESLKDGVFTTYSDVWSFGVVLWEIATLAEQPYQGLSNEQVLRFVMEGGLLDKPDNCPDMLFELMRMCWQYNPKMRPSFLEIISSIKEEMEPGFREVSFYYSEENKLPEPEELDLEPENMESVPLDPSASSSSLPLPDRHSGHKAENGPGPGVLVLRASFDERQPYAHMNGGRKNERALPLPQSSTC
T1 sequence (P11362 22-822): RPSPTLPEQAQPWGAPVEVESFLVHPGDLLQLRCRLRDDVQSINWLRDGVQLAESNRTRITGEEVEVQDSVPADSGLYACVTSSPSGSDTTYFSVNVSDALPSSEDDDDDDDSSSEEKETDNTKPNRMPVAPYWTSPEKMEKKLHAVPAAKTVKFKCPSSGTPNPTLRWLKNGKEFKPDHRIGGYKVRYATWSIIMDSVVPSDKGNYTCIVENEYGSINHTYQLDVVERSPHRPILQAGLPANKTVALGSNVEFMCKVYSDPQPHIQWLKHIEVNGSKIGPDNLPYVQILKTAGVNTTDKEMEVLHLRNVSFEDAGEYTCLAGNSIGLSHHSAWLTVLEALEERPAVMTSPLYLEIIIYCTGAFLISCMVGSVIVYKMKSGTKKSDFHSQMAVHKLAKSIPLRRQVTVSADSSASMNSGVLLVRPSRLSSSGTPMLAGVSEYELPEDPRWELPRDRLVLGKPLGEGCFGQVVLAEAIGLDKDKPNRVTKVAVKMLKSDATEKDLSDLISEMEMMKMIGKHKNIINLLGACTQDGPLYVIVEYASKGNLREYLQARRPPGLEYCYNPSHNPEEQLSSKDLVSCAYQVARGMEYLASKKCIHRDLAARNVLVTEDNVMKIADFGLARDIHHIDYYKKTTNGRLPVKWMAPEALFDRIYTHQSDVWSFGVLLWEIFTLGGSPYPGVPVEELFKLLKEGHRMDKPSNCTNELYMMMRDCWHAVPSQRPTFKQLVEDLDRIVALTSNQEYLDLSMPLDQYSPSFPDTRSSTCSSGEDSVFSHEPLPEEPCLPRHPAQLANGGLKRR
FGFR1 kinase, sequence (P11362 22-822): as above

Compound	IC50 (FGFR1 IIIc [1]) [µM]	IC50 (FGFR1 IIIc [2]) [µM]	IC50 (FGFR1 kinase) [µM]	IC50 (Erk phosphorylation; [3]) [µM]	IC50 (human IGF1R) [µM]	IC50 (Erk phosphorylation; NIH3T3) [µM]
c1cc(Nc2cc(C3CCCC3)[nH]n2)nc(NCc2cc(C3CC3)no2)n1 [Example 14, N′-(5-cyclopentyl-2H-pyrazol-3-yl)-N-[(3-cyclopropyl-1,2-oxazol-5-yl)methyl]pyrimidine-2,4-diamine]	< 0.2	< 0.2	< 0.2			
CC(C)Cc1cc(Nc2ccnc(NCc3cc(C4CC4)no3)n2)n[nH]1 [Example 16, N-[(3-cyclopropyl-1,2-oxazol-5-yl)methyl]-N′-[5-(2-methylpropyl)-2H-pyrazol-3-yl]pyrimidine-2,4-diamine]	< 1	< 0.2	< 0.2			
COc1ccccc1CCc1cc(Nc2ccnc(NCc3cc(C)no3)n2)n[nH]1 [Example 31, N′-[5-[2-(2-methoxyphenyl)ethyl]-1H-pyrazol-3-yl]-N-[(3-methyl1,2-oxazol-5-yl)methyl]pyrimidine-2,4-diamine hydrochloride]	< 10		< 1	< 10	> 10	
Cc1cc(CNc2nccc(Nc3cc(COc4ccccc4)[nH]n3)n2)on1 [Example 34, N-[(3-methyl-1,2-oxazol-5-yl)methyl]-N′-[5-(phenoxymethyl)-2H-pyrazol-3-yl]pyrimidine-2,4-diamine]	< 10		< 10	< 10	> 10	
Cc1cc(CNc2nccc(Nc3cc(CCc4cccc(OCc5ccccc5)c4)n[nH]3)n2)on1 [Example 38, N-[(3-methyl1,2-oxazol-5-yl)methyl]-N′-[5-[2-(3-phenylmethoxyphenyl)ethyl]-2H-pyrazol-3-yl]pyrimidine-2,4-diamine]	< 10		< 10	< 1	0.1 to 1	
Cc1cc(CNc2nccc(Nc3cc(CCc4ccccc4OCc4ccccc4)[nH]n3)n2)on1 [Example 39, N-[(3-methyl1,2-oxazol-5-yl)methyl]-N′-[5-[2-(2-phenylmethoxyphenyl)ethyl]-1H-pyrazol-3-yl]pyrimidine-2,4-diamine hydrochloride]	< 10		< 10	< 1	> 10	
COCCOc1cccc(CCc2cc(Nc3ccnc(NCc4cc(C)no4)n3)n[nH]2)c1 [Example 40, N′-[5-[2-[3-(2-methoxyethoxy)phenyl]ethyl]-2H-pyrazol-3-yl]-N-[(3-methyl1,2-oxazol-5-yl)methyl]pyrimidine-2,4-diamine]	< 10		< 1	< 1	1 to 10	
Cc1cc(CNc2nccc(Nc3cc(CCc4cc(O)cc(O)c4)[nH]n3)n2)on1 [Example 43, 5-[2-[5-[[2-[(3-methyl1,2-oxazol-5-yl)methylamino]pyrimidin-4-yl]amino]-1H-pyrazol-3-yl]ethyl]benzene-1,3-diol]	< 10		< 0.2	< 1	> 10	
COc1ccc(CCc2cc(Nc3ccnc(NCc4cc(C)no4)n3)n[nH]2)cc1OC [Example 46, N′-[5-[2-(3,4-dimethoxyphenyl)ethyl]-1H-pyrazol-3-yl]-N-[(3-methyl1,2-oxazol-5-yl)methyl]pyrimidine-2,4-diamine hydrochloride]	< 10				1 to 10	< 10
COc1ccc(CCc2cc(Nc3ccnc(NCc4cc(C)no4)n3)n[nH]2)c(C)c1 [Example 47, N′-[5-[2-(4-methoxy-2-methyl-phenyl)ethyl]-2H-pyrazol-3-yl]-N-[(3-methyl1,2-oxazol-5-yl)methyl]pyrimidine-2,4-diamine]	< 1		< 1	< 1	1 to 10	
Cc1cc(CNc2nccc(Nc3cc(CCc4cccc(C#N)c4)[nH]n3)n2)on1 [Example 48, 3-[2-[5-[[2-[(3-methyl-1,2-oxazol-5-yl)methylamino]pyrimidin-4-yl]amino]-2H-pyrazol-3-yl]ethyl]benzonitrile]	< 10		< 1	< 10	> 10	
Oc1cccc(CCc2cc(Nc3ccnc(NCc4cc(C5CC5)no4)n3)n[nH]2)c1 [Example 56, 3-[2-[5-[[2-[(3-cyclopropyl-1,2-oxazol-5-yl)methylamino]pyrimidin-4-yl]amino]-1H-pyrazol-3-yl]ethyl]phenol]	< 0.2	< 0.2	< 0.2		1 to 10	
Cc1cc(CNc2nccc(Nc3cc(CCc4cc(F)cc(Cl)c4)[nH]n3)n2)on1 [Example 57, N′-[5-[2-(3-chloro-5-fluoro-phenyl)ethyl]-2H-pyrazol-3-yl]-N-[(3-methyl-1,2-oxazol-5-yl)methyl]pyrimidine-2,4-diamine]	< 0.2	< 1	< 1			
Cc1cc(CNc2nccc(Nc3cc(CCc4cccc(CN)c4)[nH]n3)n2)on1 [Example 58, N′-[5-[2-[3-(aminomethyl)phenyl]ethyl]-1H-pyrazol-3-yl]-N-[(3-methyl-1,2-oxazol-5-yl)methyl]pyrimidine-2,4-diamine]	< 30	< 30	< 1			
Cc1cc(CNc2nccc(Nc3cc(CCc4cccc(C(=O)N(C)C)c4)[nH]n3)n2)on1 [Example 59, N,N-dimethyl-3-[2-[5-[[2-[(3-methyl-1,2-oxazol-5-yl)methylamino]pyrimidin-4-yl]amino]-2H-pyrazol-3-yl]ethyl]benzamide]	< 30	< 30	< 1			
COc1cc(CCc2cc(Nc3ccnc(NCc4cc(C)no4)n3)n[nH]2)c(F)cn1 [Example 62, N′-[5-[2-(5-fluoro-2-methoxy-pyridin-4-yl)ethyl]-1H-pyrazol-3-yl]-N-[(3-methyl-1,2-oxazol-5-yl)methyl]pyrimidine-2,4-diamine hydrochloride]	< 1	< 1	< 1		> 10	
CN(C)Cc1cc(CNc2nccc(Nc3cc(CCc4cccc(O)c4)n[nH]3)n2)on1 [Example 63, 3-[2-[5-[[2-[[3-(dimethylaminomethyl)-1,2-oxazol-5-yl]methylamino]pyrimidin-4-yl]amino]-1H-pyrazol-3-yl]ethyl]phenol]	< 10	< 10	< 0.2			
CNC(=O)c1cc(CNc2nccc(Nc3cc(CCc4cccc(OC)c4)n[nH]3)n2)on1 [Example 64, 5-[[[4-[[5-[2-(3-methoxyphenyl)ethyl]-2H-pyrazol-3-yl]amino]pyrimidin-2-yl]amino]methyl]-N-methyl-1,2-oxazole-3-carboxamide]	< 10	< 10	< 1			
CNC(=O)c1cc(CNc2nccc(Nc3cc(CCc4cccc(O)c4)n[nH]3)n2)on1 [Example 65, 5-[[[4-[[5-[2-(3-hydroxyphenyl)ethyl]-2H-pyrazol-3-yl]amino]pyrimidin-2-yl]amino]methyl]-N-methyl-1,2-oxazole-3-carboxamide]	< 10	< 10	< 0.2		1 to 10	
CC(C)Oc1cc(Nc2ccnc(NCc3cc(C(N)=O)no3)n2)[nH]n1 [Example 78, 5-[[[4-[(5-propan-2-yloxy-2H-pyrazol-3-yl)amino]pyrimidin-2-yl]amino]methyl]-1,2-oxazole-3-carboxamide]	< 10		< 0.2	< 1		
CC(C)Oc1cc(Nc2ccnc(NCc3cc(C4CCC4)no3)n2)n[nH]1 [Example 102, N-[(3-cyclobutyl-1,2-oxazol-5-yl)methyl]-N′-(5-propan-2-yloxy-1H-pyrazol-3-yl)pyrimidine-2,4-diamine]	< 0.2	< 0.2	< 0.2		0.1 to 1	
c1ccc(COc2cc(Nc3ccnc(NCc4cc(C5CC5)no4)n3)n[nH]2)cc1 [Example 103, N-[(3-cyclopropyl-1,2-oxazol-5-yl)methyl]-N′-(5-phenylmethoxy-2H-pyrazol-3-yl)pyrimidine-2,4-diamine]	< 0.2	< 0.2	< 0.2		1 to 10	
Cc1cc(CNc2nccc(Nc3cc(OCc4ccoc4)[nH]n3)n2)on1 [Example 108, N′-[5-(3-furylmethoxy)-1H-pyrazol-3-yl]-N-[(3-methyl1,2-oxazol-5-yl)methyl]pyrimidine-2,4-diamine]	< 10		< 0.2	< 1		
c1coc(-c2cc(Nc3ccnc(NCc4cc(C5CC5)no4)n3)n[nH]2)c1 [Example 120, N-[(3-cyclopropyl-1,2-oxazol-5-yl)methyl]-N′-[5-(2-furyl)-2H-pyrazol-3-yl]pyrimidine-2,4-diamine]	< 1	< 0.2	< 0.2		1 to 10	
